Tests used:
SH-SY5Y, HeLa = assay: MTT cell proliferation assay and trypan blue count (cell viability); format: cell-based; conditions: cells treated for 48 and 72 hours; read-out: IC50 values (inhibition of cellular proliferation, MTT assay and trypan blue assay)
Description: Cell based assays were used to evaluate the possible cytotoxic effects of some compounds. To measure cytotoxic effects two different methods were used, a MTT cell proliferation assay and trypan blue count.
The Trypan blue assay is used to determine the number of viable cells present in a cell suspension. […] Briefly, 8×10^5 cells (SH-SY5Y, HeLa; obtained from ATCC, LGC standards, Sesto San Giovanni) were seeded in 24-well plates and treated for 48 and 72 hours. After the treatments, cells were stained with trypan blue and counted.
To analyze cell viability was used the colorimetric 3-(4,5-dimethylthiazol-2-yl)-2,5-diphenyltetrazolium bromide (MTT) method. The assay is based on the cleavage of the yellow tetrazolium salt MTT to purple formazan crystals by metabolic active cells. Since reduction of MTT can only occur in metabolically active cells, the level of activity is a measure of the viability of cells and conversely the cytotoxic effects of various treatments. Briefly, 8×10^5 cells (SH-SY5Y, code number CRL-2266; and HeLa, code number CCL-2) were seeded in 24-well plates and treated for 48 and 72 hours. Compounds were dissolved in DMSO and were added to the cells to give a final DMSO concentration no greater than 0.5%. Cells were washed once in Locke buffer and 300 μl of MTT (250 μg/ml in Locke buffer) were added before returning the cells to the incubator for 1 h to allow the formation of the purple formazan crystals. After 1 h, 600 μl of isopropanol/0.1 M HCl were added to each well, and the absorbance was read at 570 nm in a plate reader (Victor3V, PerkinElmer Life Sciences). For some compounds a dose response curve and IC50 for the effects on cell viability and proliferation were calculated. Cell lines used were originally purchased from ATCC (LGC standards. Sesto San Giovanni).
To evaluate the ability of each compound to inhibit cellular proliferation, cells were seeded in 24-well plates and treated for 48 and 72 hours. After the treatments the MTT assay and trypan blue assay were performed.

[1] = system: DNBS-induced colitis in BALB/c mice; assay: Experimental colitis induced by DNBS; format: in vivo; conditions: i.p.
Description: Animal work was authorized by the local ethical committee for animal studies (Università del Piemonte Orientale). BALB/c mice (Harlan Nossan, Milan, Italy) were anesthetized by enflurane. Dinitrobenzene sulfonic acid (DNBS; 4 mg in 100 μl of 50% ethanol) was injected into the rectum through a catheter inserted 4.5 cm proximally to the anus. Carrier alone (100 μl of 50% ethanol) was administered in control experiments. Thereafter, the animals were kept for 15 minutes in a Trendelenburg position to avoid reflux. Treatment with either solvent alone or drugs was done immediately after induction and thereafter twice a day. […] On Day 4, the animals were weighed and anaesthetized with chloral hydrate, and the abdomen was opened by a midline incision. The colon was removed, freed from surrounding tissues, opened along the antimesenteric border, rinsed, weighed, and processed for histology, biochemical measurements and immunohistochemistry. Colon damage (macroscopic damage score) was evaluated and scored by two independent observers according to the following criteria: 0, no damage; 1, localized hyperemia without ulcers; 2, linear ulcers with no significant inflammation; 3, linear ulcers with inflammation at one site; 4, two or more major sites of inflammation and ulceration extending >1 cm along the length of the colon; and 5-8, one point is added for each centimeter of ulceration beyond an initial 2 cm. Biochemical and histological analysis also included TNFalpha measurements and myeloperoxidase (MPO) measurements by ELISA assay, and VEGF, NAMPT, COX-2 measurements by immunoblotting. (Esposito E, Mazzon E, Paterniti I, Dal Toso R, Pressi G, Caminiti R, Cuzzocrea S. PPAR-alpha Contributes to the Anti-Inflammatory Activity of Verbascoside in a Model of Inflammatory Bowel Disease in Mice. PPAR Res. 2010; 2010:917312).
(§1) As previously described, the colon of DNBS- or dextran treated animals was removed after the induction of colitis. Compounds of formula (I) were administered intraperitoneally (i.p.).

NAMPT = target: T1, NAMPT (Homo sapiens, UniProt P43490); assay: Direct inhibition of NAMPT enzymatic activity (Cyclex NAMPT colorimetric Assay Kit); format: biochemical; conditions: as assessed with a cycling assay
T1 construct: endogenous in cells; host or cells: SH-SY5Y and HeLa
T1 sequence (P43490 whole entry): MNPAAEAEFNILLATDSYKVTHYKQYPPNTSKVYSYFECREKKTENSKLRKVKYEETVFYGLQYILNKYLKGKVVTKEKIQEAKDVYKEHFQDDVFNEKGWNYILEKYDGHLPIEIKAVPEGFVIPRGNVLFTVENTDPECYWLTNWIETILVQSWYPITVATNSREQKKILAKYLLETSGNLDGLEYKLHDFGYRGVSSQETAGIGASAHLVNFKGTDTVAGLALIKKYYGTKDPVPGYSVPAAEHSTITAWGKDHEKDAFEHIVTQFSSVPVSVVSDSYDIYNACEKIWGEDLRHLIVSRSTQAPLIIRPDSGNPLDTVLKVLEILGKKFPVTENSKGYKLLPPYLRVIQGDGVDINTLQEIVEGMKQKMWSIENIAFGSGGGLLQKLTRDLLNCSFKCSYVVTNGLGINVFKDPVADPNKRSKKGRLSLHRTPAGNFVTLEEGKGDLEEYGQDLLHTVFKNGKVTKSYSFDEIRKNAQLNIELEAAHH
Description: Determination of the direct activity of compounds on NAMPT was performed using a commercial kit, Cyclex NAMPT colorimetric Assay Kit.

[2] = system: Dextran-induced colitis in C57/BJ6 mice; assay: Experimental colitis induced by dextran sulfate sodium (DSS); format: in vivo; conditions: i.p., doses of between 20 mg/Kg and 500 mg/Kg
Description: Animal work was authorized by the local ethical committee for animal studies (Università del Piemonte Orientale). Colitis was induced in C57/BJ6 mice (Harlan Nossan, Milan, Italy) by addition of DSS (2%) to their daily drinking water for 7 days followed by a 3-day recovery period without DSS. The severity of colitis was assessed using these set of criteria: (1) clinical index (daily changes in body weight; diarrhea and rectal bleeding); (2) macroscopic evidence of colitis (shortening of colon length). On day 10 of the experiment, animals were sacrificed. Treatments were performed with either solvent alone or drugs once a day for the entire duration of the experiments from day 1 to day 7. The colon lengths were measured and colon tissues were harvested for biochemical measurements, histopathological assessment and scoring. (Tang Y, Preuss F, Turek F W, Jakate S, Keshavarzian A. Sleep deprivation worsens inflammation and delays recovery in a mouse model of colitis. Sleep Med. 2009 June; 10(6):597-603).
as §1

[3] = DNBS-treated mice, between 20 mg/Kg and 500 mg/Kg, compared to untreated colitis mice

O=C(O)c1ccccc1-c1ccccc1C(=O)NCCCCCCCn1cc(-c2cccnc2)nn1 [2′-((7-(4-(pyridin-3-yl)-1H-1,2,3-triazol-1-yl)heptyl)carbamoyl)-[1,1′-biphenyl]-2-carboxylic acid]
IC50 (SH-SY5Y, HeLa): < 300 nM | MPO in the colon [1, 3]: able to reduce | NAMPT in the colon [1, 3]: able to reduce | TNFalpha in the colon [1, 3]: able to reduce | VEGF in the colon [1, 3]: able to reduce | protection from DNBS-induced colitis as assessed by the macroscopic damage score ([1]; doses of between 20 mg/Kg and 500 mg/Kg): able to protect | inhibition of the enzymatic activity of NAMPT (NAMPT): able to inhibit | protection from Dextran-induced colitis as assessed by the macroscopic damage score [2]: able to protect

From US20160075682A1, “INHIBITORS OF NICOTINAMIDE PHOSPHORIBOSYLTRANSFERASE, COMPOSITIONS, PRODUCTS AND USES THEREOF” (UNIVERSITÀ DEGLI STUDI DEL PIEMONTE ORIENTALE "AMEDEO …, priority 2013, published 2016)
